Assay results: PMC9186351, “Discovery of N-quinazolinone-4-hydroxy-2-quinolone-3-carboxamides as DNA gyrase B-targeted antibacterial agents” (Journal of Enzyme Inhibition and Medicinal Chemistry, 2022)
Converted amounts (≈) assume the structure as drawn. “And” between values parts separate entries of the source, which are not always exact repeats. Identical values can stand only once. Like-named read-outs stand apart in the source and are kept apart here.

Assays:
S. aureus GyrB = biological target: T1, S. aureus GyrB (Staphylococcus aureus, UniProt P0A0K8); experiment: S. aureus GyrB (Gyrase ATPase) inhibition assay, ADP-Glo; format: biochemical; settings: for inhibition at 10 µM: read-out: GyrB inhibition rate (%) at 10 μM; for IC50: IC50 for GyrB (µM, mean ± SD), S. aureus Gyrase ATPase inhibition, average of duplicates
T1 construct: purchased Inspiralis Ltd., Norwich, UK
T1 sequence (P0A0K8 whole entry): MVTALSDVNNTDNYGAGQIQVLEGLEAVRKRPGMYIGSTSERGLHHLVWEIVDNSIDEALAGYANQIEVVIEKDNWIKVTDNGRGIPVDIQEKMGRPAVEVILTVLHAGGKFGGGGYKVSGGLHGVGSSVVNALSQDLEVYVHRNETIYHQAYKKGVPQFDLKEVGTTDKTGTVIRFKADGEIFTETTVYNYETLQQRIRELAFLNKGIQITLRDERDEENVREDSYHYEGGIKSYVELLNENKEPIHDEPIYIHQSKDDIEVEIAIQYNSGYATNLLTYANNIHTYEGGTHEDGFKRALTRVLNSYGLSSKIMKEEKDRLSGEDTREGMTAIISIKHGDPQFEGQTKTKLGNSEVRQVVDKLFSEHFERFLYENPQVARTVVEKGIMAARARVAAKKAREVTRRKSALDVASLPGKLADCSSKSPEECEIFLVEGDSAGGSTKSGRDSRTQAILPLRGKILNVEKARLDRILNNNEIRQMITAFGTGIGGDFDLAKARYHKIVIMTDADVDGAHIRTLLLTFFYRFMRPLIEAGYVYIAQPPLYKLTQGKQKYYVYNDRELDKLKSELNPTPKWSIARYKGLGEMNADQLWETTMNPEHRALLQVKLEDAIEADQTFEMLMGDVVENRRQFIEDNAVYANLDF
T1 sequence (P20831 whole entry, further chain): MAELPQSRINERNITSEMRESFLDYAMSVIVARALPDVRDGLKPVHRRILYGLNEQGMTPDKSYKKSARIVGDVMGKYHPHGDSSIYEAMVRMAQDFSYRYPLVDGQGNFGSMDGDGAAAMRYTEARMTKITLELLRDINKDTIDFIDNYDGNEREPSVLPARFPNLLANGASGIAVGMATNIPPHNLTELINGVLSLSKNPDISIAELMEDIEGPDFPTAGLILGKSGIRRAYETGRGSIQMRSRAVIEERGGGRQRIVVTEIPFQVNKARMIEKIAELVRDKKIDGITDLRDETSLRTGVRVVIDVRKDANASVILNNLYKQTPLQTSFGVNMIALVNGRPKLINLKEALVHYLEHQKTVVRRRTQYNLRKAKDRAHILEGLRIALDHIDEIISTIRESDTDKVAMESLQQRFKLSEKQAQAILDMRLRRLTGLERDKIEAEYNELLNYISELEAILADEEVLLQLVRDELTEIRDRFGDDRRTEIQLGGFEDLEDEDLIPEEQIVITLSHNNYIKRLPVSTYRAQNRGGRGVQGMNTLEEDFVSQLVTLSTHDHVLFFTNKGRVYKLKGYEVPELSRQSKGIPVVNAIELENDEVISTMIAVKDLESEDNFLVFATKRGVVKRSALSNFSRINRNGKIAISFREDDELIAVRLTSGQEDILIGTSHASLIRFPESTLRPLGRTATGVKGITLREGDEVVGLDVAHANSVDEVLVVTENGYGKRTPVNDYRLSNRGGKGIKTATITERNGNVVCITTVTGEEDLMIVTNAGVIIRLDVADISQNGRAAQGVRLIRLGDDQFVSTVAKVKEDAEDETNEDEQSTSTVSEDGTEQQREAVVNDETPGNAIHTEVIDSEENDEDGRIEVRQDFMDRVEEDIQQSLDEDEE
Experimental: The IC50 values for S. aureus GyrB were determined according to our previously reported protocol.[16] For this assay, the reaction mixture (10 μL) consisted of 5 nM S. aureus Gyrase (Inspiralis Ltd., Norwich, UK), assay buffer [40 mM HEPES-KOH (pH 7.6), 10 mM magnesium acetate, 10 mM dithiothreitol, 50 g/L BSA, and 500 mM potassium glutamate], the test compound (0.01–100 μM), 1% DMSO, 10 nM linear pBR322 DNA, and […]. The target compound was dissolved in DMSO (10 mM). A series of dilutions (0.1–1000 μM) were prepared from the stock solution with the assay buffer and DMSO. The dilutions (1 μL) were respectively added to the PCR tubes along with the buffer (7 μL), the linear pBR322 DNA (0.5 μL), S. aureus Gyrase (0.5 μL), and ATP (1 μL). The PCR tubes were sealed and incubated at 37 °C for 30 min. The ADP-Glo reagent (40 μL) was added to stop the reaction and use up the remaining ATP.
The detection reagent (50 μL) was then added and mixed. After 5 min, the mixture in each PCR tube was put in the well of a 96-well plate and its luminescence was measured by the BioTek Synergy 2 microplate reader. The activity values (%) of S. aureus Gyrase treated by the test compound at different concentrations were determined based on the luminescence. GraphPad Prism version 5 software (GraphPad Software Inc., La Jolla, CA) was used to calculate the IC50 values.

[1] = test system: methicillin-sensitive S. aureus (MSSA); experiment: MIC by broth microdilution, MSSA isolates; format: cell-based; settings: Staphylococcus aureus
Experimental: All of the bacterial strains used in this study were obtained from the Collection Centre of Pathogen Microorganism of Chinese Academy of Medical Sciences (CAMS-CCPM-A) in China. All of the isolates were stored at −80 °C and streaked on tryptic soy agar (TSA) plates to obtain overnight cultures. The MICs of the test compounds were determined by the broth microdilution method in accordance with the Clinical and Laboratory Standards Institute (CLSI) guidelines.[20] Cation-adjusted Mueller-Hinton broth (CAMHB) was used as the growth medium for MIC assays. Briefly, 100 μL of serially diluted compounds (starting concentrations were 64 μg/mL) in CAMH broth were added to the wells of 96-well microtiter plates. Then, 10 µL of 5 × 10^6 CFU/mL bacterial culture was added to each well. […] The MIC was defined as the lowest concentration of a compound that inhibited visual growth of the bacteria. Vancomycin was set as the positive control for this assay.

[2] = ATCC 29213 / BAA-1708 / BAA-976 / MSSA, ATCC 29213, 15, 18-3, BAA976, BAA1708, span over isolates, read-out: MIC over the five MSSA isolates
[3] = ATCC 29213 / MSSA, MSSA ATCC 29213, read-out: MIC
[4] = BAA-976 / MSSA, MSSA BAA976, read-out: MIC
[5] = BAA-1708 / MSSA, MSSA BAA1708, read-out: MIC

Cc1noc(NC(=O)c2c(O)c3cccc4c3n(c2=O)CCC4)c1C [AE-641/00628057]
inhibition at 10 µM (S. aureus GyrB): 7%

O=C(Nc1ccccc1-c1ccccc1)c1c(O)c2cccc3c2n(c1=O)CCC3 [AE-641/00629040]
inhibition at 10 µM (S. aureus GyrB): 11%

CCCCCNC(=O)c1c(O)c2ccccc2n(C)c1=O [AG-690/11232717]
inhibition at 10 µM (S. aureus GyrB): 13%

CCCCCCn1c(=O)c(C(=O)Nc2ccccc2Br)c(O)c2ccccc21 [AG-690/11232728]
inhibition at 10 µM (S. aureus GyrB): 12%

CCCCCC(=O)NNC(=O)c1c(O)c2ccccc2n(CCC)c1=O [AG-690/11232780]
inhibition at 10 µM (S. aureus GyrB): 3%

CCCCCCn1c(=O)c(C(=O)Nc2ccc(Cl)cn2)c(O)c2ccccc21 [AG-690/11557825]
inhibition at 10 µM (S. aureus GyrB): 6%

CCn1c(=O)c(C(=O)NNC(=O)c2ccccc2Br)c(O)c2ccccc21 [AG-690/11765298]
inhibition at 10 µM (S. aureus GyrB): 45%

CCn1c(=O)c(C(=O)NNS(=O)(=O)c2ccc(Br)cc2)c(O)c2ccccc21 [AG-690/11765340]
inhibition at 10 µM (S. aureus GyrB): 10%

C=CCn1c(=O)c(C(=O)NNC(=O)Cc2ccncc2)c(O)c2ccccc21 [AG-690/36469055]
inhibition at 10 µM (S. aureus GyrB): 15%

CCCCCCn1c(=O)c(C(=O)Nc2nc(C)cs2)c(O)c2ccccc21 [AG-690/36956124]
inhibition at 10 µM (S. aureus GyrB): 10%

CCCn1c(=O)c(C(=O)NNC(=O)Cc2ccccc2)c(O)c2ccccc21 [AG- 690/36956135]
inhibition at 10 µM (S. aureus GyrB): 6%

CCCCCc1nc2ccc(Cl)cc2c(=O)n1NC(=O)c1c(O)c2ccccc2n(CC)c1=O [f2, N-(6-chloro-4-oxo-2-pentylquinazolin-3(4H)-yl)-1-ethyl-4-hydroxy-2-oxo-1,2-dihydroquinoline-3-carboxamide]
melting point: 141.5 to 143.1 °C | IC50 (S. aureus GyrB): 1.58 ± 0.06 µM

CCCCCc1nc2ccc(C)cc2c(=O)n1NC(=O)c1c(O)c2ccccc2n(CC)c1=O [f3, N-(6-methyl-4-oxo-2-pentylquinazolin-3(4H)-yl)-1-ethyl-4-hydroxy-2-oxo-1,2-dihydroquinoline-3-carboxamide]
melting point: 160.6 to 162.3 °C | IC50 (S. aureus GyrB): 0.83 ± 0.11 µM

CCCCCc1nc2ccc(OC)cc2c(=O)n1NC(=O)c1c(O)c2ccccc2n(CC)c1=O [f4, N-(6-methoxy-4-oxo-2-pentylquinazolin-3(4H)-yl)-1-ethyl-4-hydroxy-2-oxo-1,2-dihydroquinoline-3-carboxamide]
melting point: 98.7 to 99.9 °C | MIC [1, 2]: ≥ 32 µg/mL | MIC [1, 3]: > 64 µg/mL | MIC [1, 4]: 32 µg/mL (≈ 67.2 µM) | MIC [1, 5]: > 64 µg/mL | MIC ([1]; MSSA, MSSA 15, read-out: MIC): 64 µg/mL (≈ 134 µM) | MIC ([1]; MSSA, MSSA 18-3, read-out: MIC): 64 µg/mL (≈ 134 µM) | IC50 (S. aureus GyrB): 0.31 ± 0.07 µM

CCCCCc1nc2ccc(C(F)(F)F)cc2c(=O)n1NC(=O)c1c(O)c2ccccc2n(CC)c1=O [f5, N-(4-oxo-2-pentyl-6-(trifluoromethyl)quinazolin-3(4H)-yl)-1-ethyl-4-hydroxy-2-oxo-1,2-dihydroquinoline-3-carboxamide]
melting point: 128.3 to 130.2 °C | IC50 (S. aureus GyrB): 0.81 ± 0.17 µM

CCCCCc1nc2cc(Cl)ccc2c(=O)n1NC(=O)c1c(O)c2ccccc2n(CC)c1=O [f6, N-(7-chloro-4-oxo-2-pentylquinazolin-3(4H)-yl)-1-ethyl-4-hydroxy-2-oxo-1,2-dihydroquinoline-3-carboxamide]
melting point: 128.4 to 130.2 °C | IC50 (S. aureus GyrB): 0.83 ± 0.01 µM

CCCCCc1nc2cc(C)ccc2c(=O)n1NC(=O)c1c(O)c2ccccc2n(CC)c1=O [f7, N-(7-methyl-4-oxo-2-pentylquinazolin-3(4H)-yl)-1-ethyl-4-hydroxy-2-oxo-1,2-dihydroquinoline-3-carboxamide]
melting point: 167.2 to 168.4 °C | IC50 (S. aureus GyrB): 24.4 ± 4.5 µM

CCCCCc1nc2cc(OC)ccc2c(=O)n1NC(=O)c1c(O)c2ccccc2n(CC)c1=O [f8, N-(7-methoxy-4-oxo-2-pentylquinazolin-3(4H)-yl)-1-ethyl-4-hydroxy-2-oxo-1,2-dihydroquinoline-3-carboxamide]
melting point: 146.8 to 147.6 °C | IC50 (S. aureus GyrB): 7.9 ± 0.1 µM

CCCCCc1nc2cc(OC)c(OC)cc2c(=O)n1NC(=O)c1c(O)c2ccccc2n(CC)c1=O [f9, N-(6,7-dimethoxy-4-oxo-2-pentylquinazolin-3(4H)-yl)-1-ethyl-4-hydroxy-2-oxo-1,2-dihydroquinoline-3-carboxamide]
melting point: 172.4 to 174.1 °C | IC50 (S. aureus GyrB): 1.06 ± 0.13 µM

CCCCCc1nc2c(Cl)cccc2c(=O)n1NC(=O)c1c(O)c2ccccc2n(CC)c1=O [f10, N-(8-chloro-4-oxo-2-pentylquinazolin-3(4H)-yl)-1-ethyl-4-hydroxy-2-oxo-1,2-dihydroquinoline-3-carboxamide]
melting point: 158.6 to 160.4 °C | IC50 (S. aureus GyrB): 9.7 ± 2.1 µM

CCCCCc1nc2c(C)cccc2c(=O)n1NC(=O)c1c(O)c2ccccc2n(CC)c1=O [f11, N-(8-methyl-4-oxo-2-pentylquinazolin-3(4H)-yl)-1-ethyl-4-hydroxy-2-oxo-1,2-dihydroquinoline-3-carboxamide]
melting point: 142.7 to 144.3 °C | IC50 (S. aureus GyrB): 0.77 ± 0.02 µM

CCCCCc1nc2c(OC)cccc2c(=O)n1NC(=O)c1c(O)c2ccccc2n(CC)c1=O [f12, N-(8-methoxy-4-oxo-2-pentylquinazolin-3(4H)-yl)-1-ethyl-4-hydroxy-2-oxo-1,2-dihydroquinoline-3-carboxamide]
melting point: 178.3 to 180.1 °C | IC50 (S. aureus GyrB): 0.878 µM and 0.88 µM

CCn1c(=O)c(C(=O)Nn2c(C)nc3ccccc3c2=O)c(O)c2ccccc21 [f13, N-(2-methyl-4-oxoquinazolin-3(4H)-yl)-1-ethyl-4-hydroxy-2-oxo-1,2-dihydroquinoline-3-carboxamide]
IC50 (S. aureus GyrB): 1.64 ± 0.23 µM

CCc1nc2ccccc2c(=O)n1NC(=O)c1c(O)c2ccccc2n(CC)c1=O [f14, N-(2-ethyl-4-oxoquinazolin-3(4H)-yl)-1-ethyl-4-hydroxy-2-oxo-1,2-dihydroquinoline-3-carboxamide]
MIC [1, 2]: ≥ 32 µg/mL | MIC [1, 3]: > 64 µg/mL | MIC [1, 4]: 32 µg/mL (≈ 79.1 µM) | MIC [1, 5]: 64 µg/mL (≈ 158 µM) | MIC ([1]; MSSA, MSSA 15, read-out: MIC): 64 µg/mL (≈ 158 µM) | MIC ([1]; MSSA, MSSA 18-3, read-out: MIC): > 64 µg/mL | IC50 (S. aureus GyrB): 0.28 ± 0.04 µM

CCCc1nc2ccccc2c(=O)n1NC(=O)c1c(O)c2ccccc2n(CC)c1=O [f15, N-(4-oxo-2-propylquinazolin-3(4H)-yl)-1-ethyl-4-hydroxy-2-oxo-1,2-dihydroquinoline-3-carboxamide]
melting point: 158.6 to 160.7 °C | IC50 (S. aureus GyrB): 11.9 ± 2.3 µM

CCCCc1nc2ccccc2c(=O)n1NC(=O)c1c(O)c2ccccc2n(CC)c1=O [f16, N-(2-butyl-4-oxoquinazolin-3(4H)-yl)-1-ethyl-4-hydroxy-2-oxo-1,2-dihydroquinoline-3-carboxamide]
melting point: 139.8 to 140.5 °C | IC50 (S. aureus GyrB): 2.34 ± 0.34 µM
